Measured values reported in ChEMBL document CHEMBL5500403, “Discovery of a Double-Stapled Short Peptide as a Long-Acting HIV-1 Inactivator with Potential for Oral Bioavailability” (J Med Chem, 2024).
Bridge positions count the residues as written; N and C are the ends. Square brackets hold non-standard residues; d marks the D form. Peptide text beside a SMILES is read from it. S5 = C=CCCC[C@](C)(N)C(=O)O

Tests used:
[1] = tested on: Human immunodeficiency virus 1; test: Antiviral activity against HIV-1 IIIB infected in human MT2 cells assessed as inhibition of viral growth pretreated with virus for 30 mins followed by infection with cells incubated for 72 hrs by ELISA; assay type: functional, organism-based; conditions: Human immunodeficiency virus 1, IIIB
[2] = Cytotoxicity against human MT2 cells; assay type: toxicity, cell-based
[3] = Selectivity index, ratio of CC50 for cytotoxicity against human MT2 cells to IC50 for antiviral activity against HIV-1 IIIB infected in human MT2 cells; assay type: toxicity, cell-based; conditions: read-out: Ratio CC50/IC50
[4] = MRT in Sprague-Dawley rat at 1 mg/kg,iv administration measured upto 9 days by LC-MS/MS analysis; assay type: ADME, organism-based; conditions: in vivo, time < 9 day
[5] = Drug degradation in rat plasma at 1 ug/ml incubated for 1 hr by LC-MS/MS analysis; assay type: ADME, cell-free; conditions: at 1 µg/mL
[6] = Stability in rat liver assessed as parent compound remaining at 1 ug/ml incubated for 1 hr by LC-MS/MS analysis; assay type: ADME, tissue-based; conditions: at 1 µg/mL, read-out: Stability
[7] = tested on: Human immunodeficiency virus 1; test: Antiviral activity against T20-resistant HIV-1 NL4-3 harboring […] V38E and N42S mutant assessed as reduction in viral growth by measuring p24 antigen level incubated for 2 hrs by ELISA; assay type: functional, organism-based
[8] = Volume of distribution at steady state in Sprague-Dawley rat at 1 mg/kg,iv administration measured upto 9 days by LC-MS/MS analysis; assay type: ADME, organism-based; conditions: in vivo, time < 9 day, read-out: Vdss
[9] = tested on: Human immunodeficiency virus 1; test: Antiviral activity against T20-resistant HIV-1 NL4-3 harboring […] N38A and N42T mutant assessed as reduction in viral growth by measuring p24 antigen level incubated for 2 hrs by ELISA; assay type: functional, organism-based
[10] = tested on: Human immunodeficiency virus 1; test: Antiviral activity against T20-resistant HIV-1 NL4-3 harboring […] N42T and N43K mutant assessed as reduction in viral growth by measuring p24 antigen level incubated for 2 hrs by ELISA; assay type: functional, organism-based
chymotrypsin = chymotrypsin (Homo sapiens, UniProt P17538+P40313+Q6GPI1+Q99895); test: Proteolytic stability assessed as Chymotrypsin (unknown origin) mediated compound degradation by measuring parent compound remaining incubated for 2 hrs by LC-MS/MS analysis; assay type: ADME, protein assay; conditions: read-out: Stability
[11] = tested on: Human immunodeficiency virus 1; test: Antiviral activity against HIV-1 clinical isolate X4-89BZ167 assessed as reduction in viral growth by measuring p24 antigen level incubated for 2 hrs by ELISA; assay type: functional, organism-based; conditions: Human immunodeficiency virus 1, clinical isolate X4-89BZ167, 2 h
[12] = AUClast in Sprague-Dawley rat at 1 mg/kg,iv administration measured upto 9 days by LC-MS/MS analysis; assay type: ADME, organism-based; conditions: in vivo, time < 9 day
[13] = tested on: Human immunodeficiency virus 1; test: Antiviral activity against HIV-1 IIIB assessed as reduction in viral growth by measuring p24 antigen level incubated for 2 hrs by ELISA; assay type: functional, organism-based; conditions: Human immunodeficiency virus 1, IIIB
[14] = Elimination half life in Sprague-Dawley rat at 1 mg/kg,iv administration measured upto 9 days by LC-MS/MS analysis; assay type: ADME, organism-based; conditions: in vivo, time < 9 day, read-out: beta t1/2 (converted)
[15] = Proteolytic stability assessed as proteinase K (unknown origin) mediated compound degradation incubated for 4 hrs by LC-MS/MS analysis; assay type: ADME; conditions: human
[16] = Biodistribution in Sprague-Dawley rat brain at 1 mg/kg,iv administration measured after 144 hrs by LC-MS/MS analysis; assay type: ADME, organism-based; conditions: in vivo
[17] = tested on: Human immunodeficiency virus 1; test: Antiviral activity against T20-resistant HIV-1 NL4-3 harboring […] N38A and N42T mutant infected in human MT2 cells assessed as inhibition of viral growth pretreated with virus for 30 mins followed by infection with cells incubated for 72 hrs by ELISA; assay type: functional, organism-based
[18] = tested on: Human immunodeficiency virus 1; test: Antiviral activity against HIV-1 Bal-R5 assessed as reduction in viral growth by measuring p24 antigen level incubated for 2 hrs by ELISA; assay type: functional, organism-based; conditions: Human immunodeficiency virus 1, Bal-R5, 2 h
[19] = Proteolytic stability assessed as Pepsin (unknown origin) mediated compound degradation incubated for 4 hrs by LC-MS/MS analysis; assay type: ADME; conditions: human
[20] = Total clearance in Sprague-Dawley rat at 1 mg/kg,iv administration measured upto 9 days by LC-MS/MS analysis; assay type: ADME, organism-based; conditions: in vivo, time < 9 day
[21] = tested on: Human immunodeficiency virus 1; test: Antiviral activity against T20-resistant HIV-1 NL4-3 harboring […] N42T and N43K mutant infected in human MT2 cells assessed as inhibition of viral growth pretreated with virus for 30 mins followed by infection with cells incubated for 72 hrs by ELISA; assay type: functional, organism-based
[22] = Biodistribution in Sprague-Dawley rat brain at 1 mg/kg,iv administration measured after 5 mins by LC-MS/MS analysis; assay type: ADME, organism-based; conditions: in vivo
[23] = tested on: Human immunodeficiency virus 1; test: Antiviral activity against T20-resistant HIV-1 NL4-3 harboring […] V38E and N42S mutant infected in human MT2 cells assessed as inhibition of viral growth pretreated with virus for 30 mins followed by infection with cells incubated for 72 hrs by ELISA; assay type: functional, organism-based
[24] = Drug concentration in Sprague-Dawley rat plasma at 50 mg/kg,po administrated for 5 days by LC-MS/MS analysis; assay type: ADME, organism-based; conditions: in vivo, 120 h, time 5 day
[25] = Plasma protein binding in rat by LC-MS/MS analysis; assay type: ADME, cell-free; conditions: read-out: PPB (converted)
[26] = Plasma protein binding in human by LC-MS/MS analysis; assay type: ADME, cell-free; conditions: read-out: PPB (converted)

Molecule `CC(=O)NCC(=O)N[C@@H](Cc1c[nH]c2ccccc12)C(=O)N[C@@H](CCC(=O)O)C(=O)N[C@@H](C)C(=O)N[C@@H](CC(C)C)C(=O)N[C@@H](CCCCN)C(=O)N[C@@H](Cc1ccc(O)cc1)C(=O)N[C@@H](CC(C)C)C(=O)N[C@@]1(C)CCC/C=C\CCC[C@@](C)(C(=O)N[C@@H](Cc2ccc(O)cc2)C(=O)N[C@@H](Cc2c[nH]c3ccccc23)C(N)=O)NC(=O)[C@H](CC(C)C)NC(=O)[C@H](CC(C)C)NC(=O)[C@H](CC(N)=O)NC1=O` (Ac-GWEALKYL[S5]NLL[S5]YW-NH2; staple (Z) 9-13) has an IC50 [1] of 160 nM, a CC50 [2] of 5870 nM and a selectivity ratio [3] of 36.9.

For `CC(=O)NCC(=O)N[C@@H](Cc1c[nH]c2ccccc12)C(=O)N[C@@H](CCC(=O)O)C(=O)N[C@@H](C)C(=O)N[C@@H](CC(C)C)C(=O)N[C@@H](CCCCN)C(=O)N[C@@H](Cc1ccc(O)cc1)C(=O)N[C@@]1(C)CCC/C=C\CCC[C@@](C)(C(=O)N[C@@H](CCC(N)=O)C(=O)N[C@@H](Cc2ccc(O)cc2)C(=O)N[C@@H](Cc2c[nH]c3ccccc23)C(N)=O)NC(=O)[C@H](CC(C)C)NC(=O)[C@H](CC(N)=O)NC(=O)[C@H](Cc2c[nH]c3ccccc23)NC1=O` (Ac-GWEALKY[S5]WNL[S5]QYW-NH2; staple (Z) 8-12), the IC50 [1] was 95.5 nM, the CC50 [2] was 2490 nM and the selectivity ratio [3] was 26.1.

With `CC(=O)NCC(=O)N[C@@H](Cc1c[nH]c2ccccc12)C(=O)N[C@@H](CCC(=O)O)C(=O)N[C@@H](C)C(=O)N[C@@]1(C)CCC/C=C\CCC[C@@](C)(C(=O)N[C@@H](CC(N)=O)C(=O)N[C@@H](CC(C)C)C(=O)N[C@@H](CC(C)C)C(=O)N[C@@H](CCC(N)=O)C(=O)N[C@@H](Cc2ccc(O)cc2)C(=O)N[C@@H](Cc2c[nH]c3ccccc23)C(N)=O)NC(=O)[C@H](CC(C)C)NC(=O)[C@H](Cc2ccc(O)cc2)NC(=O)[C@H](CCCCN)NC1=O` (Ac-GWEA[S5]KYL[S5]NLLQYW-NH2; staple (Z) 5-9) the IC50 [1] was over 2000 nM.

With `CC(=O)NCC(=O)N[C@@H](Cc1c[nH]c2ccccc12)C(=O)N[C@@H](CCC(=O)O)C(=O)N[C@@]1(C)CCC/C=C\CCC[C@@](C)(C(=O)N[C@@H](Cc2c[nH]c3ccccc23)C(=O)N[C@@H](CC(N)=O)C(=O)N[C@@H](CC(C)C)C(=O)N[C@@H](CC(C)C)C(=O)N[C@@H](CCC(N)=O)C(=O)N[C@@H](Cc2ccc(O)cc2)C(=O)N[C@@H](Cc2c[nH]c3ccccc23)C(N)=O)NC(=O)[C@H](Cc2ccc(O)cc2)NC(=O)[C@H](CCCCN)NC(=O)[C@H](CC(C)C)NC1=O` (Ac-GWE[S5]LKY[S5]WNLLQYW-NH2; staple (Z) 4-8) the IC50 [1] was 44.2 nM, the CC50 [2] was 2310 nM and the selectivity ratio [3] was 52.5.

Work on `CC(=O)NCC(=O)N[C@@]1(C)CCC/C=C\CCC[C@@](C)(C(=O)N[C@@H](Cc2ccc(O)cc2)C(=O)N[C@@H](CC(C)C)C(=O)N[C@@H](Cc2c[nH]c3ccccc23)C(=O)N[C@@H](CC(N)=O)C(=O)N[C@@H](CC(C)C)C(=O)N[C@@H](CC(C)C)C(=O)N[C@@H](CCC(N)=O)C(=O)N[C@@H](Cc2ccc(O)cc2)C(=O)N[C@@H](Cc2c[nH]c3ccccc23)C(N)=O)NC(=O)[C@H](CC(C)C)NC(=O)[C@H](C)NC(=O)[C@H](CCC(=O)O)NC1=O` (Ac-G[S5]EAL[S5]YLWNLLQYW-NH2; staple (Z) 2-6) yielded an IC50 [1] of 121 nM, a CC50 [2] of 7180 nM and a selectivity ratio [3] of 59.3.

Work on `CC(=O)N[C@@]1(C)CCC/C=C\CCC[C@@](C)(C(=O)N[C@@H](CCCCN)C(=O)N[C@@H](Cc2ccc(O)cc2)C(=O)N[C@@H](CC(C)C)C(=O)N[C@@H](Cc2c[nH]c3ccccc23)C(=O)N[C@@H](CC(N)=O)C(=O)N[C@@H](CC(C)C)C(=O)N[C@@H](CC(C)C)C(=O)N[C@@H](CCC(N)=O)C(=O)N[C@@H](Cc2ccc(O)cc2)C(=O)N[C@@H](Cc2c[nH]c3ccccc23)C(N)=O)NC(=O)[C@H](C)NC(=O)[C@H](CCC(=O)O)NC(=O)[C@H](Cc2c[nH]c3ccccc23)NC1=O` (Ac-[S5]WEA[S5]KYLWNLLQYW-NH2; staple (Z) 1-5) yielded an IC50 [1] of 34.2 nM, a CC50 [2] of 2670 nM and a selectivity ratio [3] of 78.5.

`CC(=O)N[C@@]1(C)CCC/C=C\CCC[C@@](C)(C(=O)N[C@@H](CCCCN)C(=O)N[C@@H](Cc2ccc(O)cc2)C(=O)N[C@@]2(C)CCC/C=C\CCC[C@@](C)(C(=O)N[C@@H](CCC(N)=O)C(=O)N[C@@H](Cc3ccc(O)cc3)C(=O)N[C@@H](Cc3c[nH]c4ccccc34)C(N)=O)NC(=O)[C@H](CC(C)C)NC(=O)[C@H](CC(N)=O)NC(=O)[C@H](Cc3c[nH]c4ccccc34)NC2=O)NC(=O)[C@H](C)NC(=O)[C@H](CCC(=O)O)NC(=O)[C@H](Cc2c[nH]c3ccccc23)NC1=O` (Ac-[S5]WEA[S5]KY[S5]WNL[S5]QYW-NH2; staple (Z) 1-5, 8-12) gave an IC50 [1] of 124 nM, a CC50 [2] of 4030 nM and a selectivity ratio [3] of 32.6.

For H-GWEALKYLWNLLQYW-OH, the MRT [4] was 5.4 h, the Stability [5] was “Stable” and the remaining at 1 h, 1 ug/ml [6] was 80%. For the same molecule, the EC50 [7] was 371 nM, the Vd [8] was 0.0527 L/kg and the EC50 [9] was 30.5 nM. The EC50 [10] was 41.9 nM, the remaining at 2 h (chymotrypsin) was 32.9% and the EC50 [11] was 98 nM. It also gave an AUC(0-t) at 216 h [12] of 114 µg·h/mL, an EC50 [13] of 26.1 nM and an IC50 [1] of 130 nM. The half-life [14] was 3.8 h, the CC50 [2] was 7900 nM and the Stability [15] was “Unstable”. The Drug uptake [16] was “Not Active”, the IC50 [17] was 20.1 nM and the EC50 [18] was 25300 nM. The Stability [19] was “Unstable”, the clearance [20] was 0.158 mL/min/kg and the IC50 [21] was 142 nM. For the same molecule, the Drug uptake [22] was “Active”, the IC50 [23] was 21.3 nM and the selectivity ratio [3] was 60.9. For the same molecule, the Drug uptake [24] was “Not Active”.

For enfuvirtide, the EC50 [11] was over 4000 nM, the EC50 [13] was over 4000 nM and the IC50 [1] was 48.6 nM. It also gave a fraction unbound [25] of 0.041, an EC50 [18] of over 4000 nM and a fraction unbound [26] of 0.187.
